The target of assay [1] is T1, human α-thrombin (Homo sapiens, UniProt P00734).
T1 construct: enzyme (human α-thrombin (BioPharm® Lab.)) in assay buffer; purchased BioPharm® Lab
The assay is described as follows: Enzymatic assay for thrombin (fluorogenic peptide substrate Boc-VPR-AMC). Format: biochemical. In short, it runs like this:
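Human α-thrombin was run with the fluorogenic substrate Boc-VPR-AMC in 20 mM Hepes pH 7.4, 140 mM NaCl, 0.1% Tween 20 at room temperature for 20 min, then stopped with 0.1 M acetic acid. % activity was normalized to DMSO and no-enzyme controls. Under linear conditions IC50 equalled Ki, except for tight-binding inhibitors.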

Assay [2] deals with T2, MASP-2 (CCP1-CCP2-SP) (Homo sapiens, UniProt O00187).
T2 construct: 15 μL of Enzyme MASP-2 (CCP1-CCP2-SP) in Assay Buffer
The assay is described as follows: Enzymatic assay for MASP-2 inhibitory activity (fluorogenic substrate). Format: biochemical. In short, it runs like this: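 MASP-2 (CCP1-CCP2-SP) cleaved a fluorogenic substrate based on the C2 cleavage site in 20 mM HEPES pH 7.4, 140 mM NaCl, 0.1% Tween 20 at room temperature. After 20 min the reaction was stopped with 0.1 M acetic acid and fluorescence read. % activity was normalized to DMSO-only and no-enzyme controls; IC50 taken as Ki.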

Structures can show the parent of a compound that is named as a salt.

Drawing on patent US20250122225A1, “MASP-2 INHIBITORS AND METHODS OF USE” (Omeros Corporation, priority 2023, published 2025), this text covers Ki for 24 compounds.

T2 sequence (O00187 445-686 limits assumed): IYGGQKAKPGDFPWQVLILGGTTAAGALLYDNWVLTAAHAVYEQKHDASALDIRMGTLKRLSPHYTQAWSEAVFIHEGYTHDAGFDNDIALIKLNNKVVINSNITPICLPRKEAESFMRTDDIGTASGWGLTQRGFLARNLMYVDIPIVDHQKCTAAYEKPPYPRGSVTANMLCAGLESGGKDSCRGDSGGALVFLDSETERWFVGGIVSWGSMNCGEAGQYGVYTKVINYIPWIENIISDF
T2 sequence (O00187 287-444 partner limits assumed): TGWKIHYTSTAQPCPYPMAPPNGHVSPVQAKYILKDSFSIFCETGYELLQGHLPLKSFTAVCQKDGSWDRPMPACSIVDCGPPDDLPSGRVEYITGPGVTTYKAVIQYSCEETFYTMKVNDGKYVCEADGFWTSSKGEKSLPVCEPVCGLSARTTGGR

Consider `Cc1ccccc1[C@@H](C)Nc1ncc2n(c1=O)[C@H](C(=O)NCc1cc3c(s1)CNC3)CC2` [Compound 93, (S)-N-((5,6-dihydro-4H-thieno[2,3-c]pyrrol-2-yl)methyl)-4-oxo-3-(((R)-1-(o-tolyl)ethyl)amino)-4,6,7,8-tetrahydropyrrolo[1,2-a]pyrazine-6-carboxamide], for which the Ki in assay [1] and in assay [2] was under 500 nM each time.
Take `Cc1cc(C)cc(CNc2ncc3n(c2=O)[C@H](C(=O)NCc2cc4c(s2)CNC4)CC32CC2)c1` [Compound 126, (S)—N-((5,6-dihydro-4H-thieno[2,3-c]pyrrol-2-yl)methyl)-3′-((3,5-dimethylbenzyl)amino)-4′-oxo-6′,7′-dihydro-4′H-spiro[cyclopropane-1,8′-pyrrolo[1,2-a]pyrazine]-6′-carboxamide]: the Ki (commonly the equilibrium dissociation constant of an inhibitor or competing ligand from its target) in assay [1] was 500 to 2500 nM; in assay [2] it was under 500 nM.
On to `Cc1ccc(F)c(CNc2ncc3n(c2=O)[C@H](C(=O)NCc2ccc(N)nc2C)CC3)c1` [Compound 77, (S)-N-((6-amino-2-methylpyridin-3-yl)methyl)-3-((2-fluoro-5-methylbenzyl)amino)-4-oxo-4,6,7,8-tetrahydropyrrolo[1,2-a]pyrazine-6-carboxamide], for which the Ki in assay [1] and in assay [2] was under 500 nM each time.
With `CC1(C)C[C@@H](C(=O)NCc2cc3cnccc3[nH]2)n2c1c(Cl)nc(NCc1ccccc1)c2=O` [Compound 229, (S)-N-((1H-pyrrolo[3,2-c]pyridin-2-yl)methyl)-3-(benzylamino)-1-chloro-8,8-dimethyl-4-oxo-4,6,7,8-tetrahydropyrrolo[1,2-a]pyrazine-6-carboxamide trifluoroacetate], the Ki was 2500 to 10000 nM in assay [1] and under 500 nM in assay [2].
The corresponding values for `Cc1ccc(F)c(CNc2ncc3n(c2=O)[C@H](C(=O)NCc2ccc(N)nc2)CC3)c1` [Compound 79, (S)-N-((6-aminopyridin-3-yl)methyl)-3-((2-fluoro-5-methylbenzyl)amino)-4-oxo-4,6,7,8-tetrahydropyrrolo[1,2-a]pyrazine-6-carboxamide] are under 500 nM and under 500 nM.
For `Cc1cc(F)cc(CNc2ncc3n(c2=O)[C@H](C(=O)NCc2ccc(N)nc2)CC3)c1` [Compound 72, (S)-N-((6-aminopyridin-3-yl)methyl)-3-((3-fluoro-5-methylbenzyl)amino)-4-oxo-4,6,7,8-tetrahydropyrrolo[1,2-a]pyrazine-6-carboxamide], the Ki in assay [1] and in assay [2] was under 500 nM in each case.
For `COc1cc(C)cc(CNc2ncc3n(c2=O)[C@H](C(=O)NCc2cc4cnccc4[nH]2)C[C@@H]3Cc2ccccc2)c1` [Compound 141, (6S,8S)-N-((1H-pyrrolo[3,2-c]pyridin-2-yl)methyl)-8-benzyl-3-((3-methoxy-5-methylbenzyl)amino)-4-oxo-4,6,7,8-tetrahydropyrrolo[1,2-a]pyrazine-6-carboxamide], the Ki in assay [1] was 500 to 2500 nM; in assay [2] it was under 500 nM.
Taken in the same sequence, the figures for `Cc1cc(F)c(F)c(CNc2ncc3n(c2=O)[C@H](C(=O)N[C@H](C)c2ccc(N)nc2)CC3)c1` [Compound 224, (S)—N—((R)-1-(6-aminopyridin-3-yl)ethyl)-3-((2,3-difluoro-5-methylbenzyl)amino)-4-oxo-4,6,7,8-tetrahydropyrrolo[1,2-a]pyrazine-6-carboxamide trifluoroacetate] were 2500 to 10000 nM and under 500 nM.
Taken in the same sequence, the figures for `Cc1cc(F)cc(CNc2ncc3n(c2=O)[C@H](C(=O)NCc2cnc4[nH]cc(Cl)c4c2)CC3)c1` [Compound 182, (S)—N-((3-chloro-1H-pyrrolo[2,3-b]pyridin-5-yl)methyl)-3-((3-fluoro-5-methylbenzyl)amino)-4-oxo-4,6,7,8-tetrahydropyrrolo[1,2-a]pyrazine-6-carboxamide] were under 500 nM and under 500 nM.
The corresponding values for `Cc1nc(N)ccc1CNC(=O)[C@@H]1CCc2cnc(NCc3cnn(C)c3)c(=O)n21` [Compound 167, (S)-N-((6-amino-2-methylpyridin-3-yl)methyl)-3-(((1-methyl-1H-pyrazol-4-yl)methyl)amino)-4-oxo-4,6,7,8-tetrahydropyrrolo[1,2-a]pyrazine-6-carboxamide trifluoroacetate] are 500 to 2500 nM and under 500 nM.
For `O=C(NCc1cc2c(s1)CNC2)[C@@H]1CCc2c(Cl)nc(NCc3ccccc3)c(=O)n21` [Compound 35], the Ki is 2500 to 10000 nM in assay [1] and under 500 nM in assay [2].
The corresponding values for `COc1cc(C)cc(CNc2nc(Cl)c3n(c2=O)[C@H](C(=O)NCc2ccc(N)nc2C)CC3)c1` [Compound 8, (S)-N-((6-amino-2-methylpyridin-3-yl)methyl)-1-chloro-3-((3-methoxy-5-methylbenzyl)amino)-4-oxo-4,6,7,8-tetrahydropyrrolo[1,2-a]pyrazine-6-carboxamide] are 500 to 2500 nM and under 500 nM.
Regarding `Cc1cc(F)cc(CNc2ncc3n(c2=O)[C@H](C(=O)NCc2cc(Cl)ccc2-n2cnnn2)CC3)c1` [Compound 179, (S)—N-(5-chloro-2-(1H-tetrazol-1-yl)benzyl)-3-((3-fluoro-5-methylbenzyl)amino)-4-oxo-4,6,7,8-tetrahydropyrrolo[1,2-a]pyrazine-6-carboxamide], the Ki in assay [1] and in assay [2] was under 500 nM in each case.
Turning to `COC(CNc1nc(Cl)c2n(c1=O)[C@H](C(=O)NCc1cc3cnccc3[nH]1)CC2)c1ccccc1` (stereo partly drawn) [Compound 244], the results for the Ki in assay [1] and in assay [2] were 500 to 2500 nM and under 500 nM, respectively.
Turning to `Cc1cc(C)cc([C@@H](CO)Nc2ncc3n(c2=O)[C@H](C(=O)NCc2cc4c(s2)CNC4)CC3)c1` [Compound 92, (S)-N-((5,6-dihydro-4H-thieno[2,3-c]pyrrol-2-yl)methyl)-3-(((S)-1-(3,5-dimethylphenyl)-2-hydroxyethyl)amino)-4-oxo-4,6,7,8-tetrahydropyrrolo[1,2-a]pyrazine-6-carboxamide], the Ki in assay [1] and in assay [2] was under 500 nM each time.
Take `Cc1cc(F)cc(CNc2nc(-c3cnn(C(F)F)c3)c3n(c2=O)[C@H](C(=O)NCc2ccc(N)nc2C)CC3)c1` [Compound 214, (S)—N-((6-amino-2-methylpyridin-3-yl)methyl)-1-(1-(difluoromethyl)-1H-pyrazol-4-yl)-3-((3-fluoro-5-methylbenzyl)amino)-4-oxo-4,6,7,8-tetrahydropyrrolo[1,2-a]pyrazine-6-carboxamide trifluoroacetate]: the inhibitory constant (Ki) in assay [1] is over 25000 nM; in assay [2] it was under 500 nM.
Regarding `O=C(NCc1cc2cnccc2[nH]1)[C@@H]1CCc2c(Cl)nc(NCc3cccc(-c4ccccc4)c3)c(=O)n21` [Compound 143, (S)—N-((1H-pyrrolo[3,2-c]pyridin-2-yl)methyl)-3-(([1,1′-biphenyl]-3-ylmethyl)amino)-1-chloro-4-oxo-4,6,7,8-tetrahydropyrrolo[1,2-a]pyrazine-6-carboxamide], the results for the Ki in assay [1] and in assay [2] were over 25000 nM and under 500 nM, respectively.
Consider `Cc1cccc(CNc2ncc3n(c2=O)[C@H](C(=O)NCc2ccc(N)nc2C)CC3)c1C` [Compound 60, (S)-N-((6-amino-2-methylpyridin-3-yl)methyl)-3-((2,3-dimethylbenzyl)amino)-4-oxo-4,6,7,8-tetrahydropyrrolo[1,2-a]pyrazine-6-carboxamide], for which the Ki in assay [1] and in assay [2] was under 500 nM in each case.
With `Cc1ccc(F)c(CNc2ncc3n(c2=O)[C@H](C(=O)N[C@H](C)c2ccc(N)nc2)CC3)c1` [Compound 199, (S)-N-((R)-1-(6-aminopyridin-3-yl)ethyl)-3-((2-fluoro-5-methylbenzyl)amino)-4-oxo-4,6,7,8-tetrahydropyrrolo[1,2-a]pyrazine-6-carboxamide trifluoroacetate], the values for the Ki in assay [1] and in assay [2] were 2500 to 10000 nM and under 500 nM, respectively.
On to `O=C(NCc1cc2cnccc2[nH]1)[C@@H]1CCc2cnc(NCc3ccccc3)c(=O)n21` [Compound 102, (S)—N-((1H-pyrrolo[3,2-c]pyridin-2-yl)methyl)-3-(benzylamino)-4-oxo-4,6,7,8-tetrahydropyrrolo[1,2-a]pyrazine-6-carboxamide], for which the figures for the Ki in assay [1] and in assay [2] were 500 to 2500 nM and under 500 nM, respectively.
Regarding `Cc1nc(N)ccc1CNC(=O)[C@@H]1CCc2cnc(NCC3CCOCC3)c(=O)n21` [Compound 116, (S)—N-((6-amino-2-methylpyridin-3-yl)methyl)-4-oxo-3-(((tetrahydro-2H-pyran-4-yl)methyl)amino)-4,6,7,8-tetrahydropyrrolo[1,2-a]pyrazine-6-carboxamide], the Ki in assay [1] was 500 to 2500 nM; in assay [2], under 500 nM.
The corresponding values for `O=C(NCc1cc2cnccc2[nH]1)[C@@H]1CCc2cnc(NCC3CCCCC3)c(=O)n21` [Compound 113, (S)-N-((1H-pyrrolo[3,2-c]pyridin-2-yl)methyl)-3-((cyclohexylmethyl)amino)-4-oxo-4,6,7,8-tetrahydropyrrolo[1,2-alpyrazine-6-carboxamide trifluoroacetate] are 2500 to 10000 nM and under 500 nM.
For `COc1cc(C)cc(CNc2ncc3n(c2=O)[C@H](C(=O)NCc2ccc(N)nc2C)CC3)c1` [Compound 49, (S)-N-((6-amino-2-methylpyridin-3-yl)methyl)-3-((3-methoxy-5-methylbenzyl)amino)-4-oxo-4,6,7,8-tetrahydropyrrolo[1,2-a]pyrazine-6-carboxamide], the Ki in assay [1] and in assay [2] was under 500 nM throughout.
`Nc1nc2cc(CNC(=O)[C@@H]3CCc4c(Cl)nc(NCc5ccccc5)c(=O)n43)ccc2[nH]1` [Compound 29, trifluoroacetate]: the Ki is 10000 to 25000 nM in assay [1] and under 500 nM in assay [2].
